According to ChEMBL document CHEMBL1201861, “Genomics of Drug Sensitity in Cancer screening data, Wellcome Trust Sanger Institute”:

Assays:
Assay in all cases: cells
[1] = tested on: COLO-741; type: functional, cell-based, Homo sapiens; conditions: Homo sapiens, COLO-741
Description: SANGER: Inhibition of human COLO-741 cell growth in a cell viability assay.

[2] = tested on: COLO-824; type: functional, cell-based, Homo sapiens; conditions: Homo sapiens, COLO-824
Description: SANGER: Inhibition of human COLO-824 cell growth in a cell viability assay.

[3] = tested on: Ca9-22; type: functional, cell-based, Homo sapiens; conditions: Homo sapiens, Ca9-22;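 also: growth inhibition of Ca9-22 cells, read out with a cell viability assay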
Description: SANGER: Inhibition of human Ca9-22 cell growth in a cell viability assay.

[4] = tested on: Capan-2; type: functional, cell-based, Homo sapiens; conditions: Homo sapiens, Capan-2;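 also: Capan-2 cell growth inhibition, read out with a viability assay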
Description: SANGER: Inhibition of human Capan-2 cell growth in a cell viability assay.

[5] = tested on: D-263MG; type: functional, cell-based, Homo sapiens; conditions: Homo sapiens, D-263MG
Description: SANGER: Inhibition of human D-263MG cell growth in a cell viability assay.

[6] = tested on: EGI-1; type: functional, cell-based, Homo sapiens; conditions: Homo sapiens, EGI-1;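 also: cell viability readout used to gauge growth inhibition of EGI-1 cells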
Description: SANGER: Inhibition of human EGI-1 cell growth in a cell viability assay.

[7] = tested on: ES1; type: functional, cell-based, Homo sapiens; conditions: Homo sapiens, ES1;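 also: growth inhibition of ES1 cells, read out with a cell viability assay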
Description: SANGER: Inhibition of human ES1 cell growth in a cell viability assay.

[8] = tested on: ES5; type: functional, cell-based, Homo sapiens; conditions: Homo sapiens, ES5;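 also: growth inhibition of human ES5 cells, read out by a cell viability assay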
Description: SANGER: Inhibition of human ES5 cell growth in a cell viability assay.

[9] = tested on: EW-11; type: functional, cell-based, Homo sapiens; conditions: Homo sapiens, EW-11;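 also: growth inhibition of human EW-11 cells, measured with a cell viability assay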
Description: SANGER: Inhibition of human EW-11 cell growth in a cell viability assay.

[10] = tested on: EOL1; type: functional, cell-based; conditions: Homo sapiens;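 also: growth inhibition of EoL-1 cells, read out by a cell viability assay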
Description: SANGER: Inhibition of human EoL-1-cell cell growth in a cell viability assay.

[11] = tested on: GI-1; type: functional, cell-based, Homo sapiens; conditions: Homo sapiens, GI-1;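 also: growth inhibition of human GI-1 cells, measured with a cell viability readout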
Description: SANGER: Inhibition of human GI-1 cell growth in a cell viability assay.

[12] = tested on: GI-ME-N; type: functional, cell-based, Homo sapiens; conditions: Homo sapiens, GI-ME-N;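 also: growth inhibition of human GI-ME-N cells, read out with a cell viability assay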
Description: SANGER: Inhibition of human GI-ME-N cell growth in a cell viability assay.

[13] = tested on: GMS-10; type: functional, cell-based, Homo sapiens; conditions: Homo sapiens, GMS-10;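 also: growth inhibition of GMS-10 cells, read out as cell viability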
Description: SANGER: Inhibition of human GMS-10 cell growth in a cell viability assay.

[14] = tested on: HAL-01; type: functional, cell-based; conditions: Homo sapiens;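 also: growth inhibition of human HAL-01 cells, read out with a cell viability assay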
Description: SANGER: Inhibition of human HAL-01 cell growth in a cell viability assay.

[15] = tested on: HCC1937; type: functional, cell-based, Homo sapiens; conditions: Homo sapiens, HCC1937;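 also: growth inhibition measured with a cell viability read-out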
Description: SANGER: Inhibition of human HCC1937 cell growth in a cell viability assay.

[16] = tested on: HMV-2 cell line; type: functional, cell-based, Homo sapiens; conditions: Homo sapiens, HMV-2;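 also: growth inhibition of HMV-II cells, read out with a cell viability assay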
Description: SANGER: Inhibition of human HMV-II cell growth in a cell viability assay.

[17] = tested on: HOP-92; type: functional, cell-based, Homo sapiens; conditions: Homo sapiens, HOP-92;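 also: cell viability readout, with IC50 reflecting inhibition of HOP-92 cell growth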
Description: SANGER: Inhibition of human HOP-92 cell growth in a cell viability assay.

[18] = tested on: HT; type: functional, cell-based; conditions: Homo sapiens
Description: SANGER: Inhibition of human HT cell growth in a cell viability assay.

[19] = tested on: HT-3; type: functional, cell-based, Homo sapiens; conditions: Homo sapiens, HT-3;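 also: growth inhibition measured with a cell viability readout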
Description: SANGER: Inhibition of human HT-3 cell growth in a cell viability assay.

[20] = tested on: HuTu80; type: functional, cell-based, Homo sapiens, HUTU-80; conditions: Homo sapiens, HuTu80;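 also: growth inhibition of HuTu80 human cells, determined with a cell viability readout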
Description: SANGER: Inhibition of human HUTU-80 cell growth in a cell viability assay.

[21] = tested on: KARPAS-299; type: functional, cell-based; conditions: Homo sapiens
Description: SANGER: Inhibition of human KARPAS-299 cell growth in a cell viability assay.

[22] = tested on: KINGS-1; type: functional, cell-based, Homo sapiens; conditions: Homo sapiens, KINGS-1;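 also: cell viability assay measuring suppression of KINGS-1 cell growth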
Description: SANGER: Inhibition of human KINGS-1 cell growth in a cell viability assay.

[23] = tested on: KNS-42; type: functional, cell-based, Homo sapiens; conditions: Homo sapiens, KNS-42;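 also: growth inhibition of KNS-42 cells, read out with a cell viability assay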
Description: SANGER: Inhibition of human KNS-42 cell growth in a cell viability assay.

[24] = tested on: KP-N-YS; type: functional, cell-based; conditions: Homo sapiens;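 also: cell viability assay measuring inhibition of cell line growth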
Description: SANGER: Inhibition of human KP-N-YS cell growth in a cell viability assay.

[25] = tested on: KURAMOCHI; type: functional, cell-based; conditions: Homo sapiens;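 also: growth inhibition of KURAMOCHI cells, read out with a cell viability assay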
Description: SANGER: Inhibition of human KURAMOCHI cell growth in a cell viability assay.

[26] = tested on: KYSE-410; type: functional, cell-based, Homo sapiens; conditions: Homo sapiens, KYSE-410;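 also: growth inhibition of KYSE-410 cells, measured through a cell viability readout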
Description: SANGER: Inhibition of human KYSE-410 cell growth in a cell viability assay.

[27] = tested on: LB2518-MEL; type: functional, cell-based, Homo sapiens; conditions: Homo sapiens, LB2518-MEL;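 also: growth inhibition of human LB2518-MEL cells, measured with a cell viability assay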
Description: SANGER: Inhibition of human LB2518-MEL cell growth in a cell viability assay.

[28] = tested on: LU-134-A; type: functional, cell-based; conditions: Homo sapiens
Description: SANGER: Inhibition of human LU-134-A cell growth in a cell viability assay.

[29] = tested on: LU-139; type: functional, cell-based; conditions: Homo sapiens
Description: SANGER: Inhibition of human LU-139 cell growth in a cell viability assay.

[30] = tested on: MN-60; type: functional, cell-based; conditions: Homo sapiens;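 also: growth inhibition of the MN-60 cell line, determined with a cell viability assay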
Description: SANGER: Inhibition of human MN-60 cell growth in a cell viability assay.

[31] = tested on: NCI-H1651; type: functional, cell-based, Homo sapiens; conditions: Homo sapiens, NCI-H1651;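 also: Read-out is a cell viability assay, with IC50 expressing inhibition of NCI-H1651 cell growth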
Description: SANGER: Inhibition of human NCI-H1651 cell growth in a cell viability assay.

[32] = tested on: NCI-H1770; type: functional, cell-based; conditions: Homo sapiens;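 also: growth inhibition of NCI-H1770 cells determined with a viability readout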
Description: SANGER: Inhibition of human NCI-H1770 cell growth in a cell viability assay.

[33] = tested on: NCI-H209; type: functional, cell-based; conditions: Homo sapiens;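 also: growth inhibition of human NCI-H209 cells, measured by a cell viability assay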
Description: SANGER: Inhibition of human NCI-H209 cell growth in a cell viability assay.

[34] = tested on: NCI-H2126; type: functional, cell-based, Homo sapiens; conditions: Homo sapiens, NCI-H2126;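 also: growth inhibition of the cancer cell line, determined with a cell viability readout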
Description: SANGER: Inhibition of human NCI-H2126 cell growth in a cell viability assay.

[35] = tested on: NCI-H446; type: functional, cell-based; conditions: Homo sapiens;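 also: growth inhibition of NCI-H446 cells determined by a cell viability assay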
Description: SANGER: Inhibition of human NCI-H446 cell growth in a cell viability assay.

[36] = tested on: NCI-H520; type: functional, cell-based, Homo sapiens; conditions: Homo sapiens, NCI-H520;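 also: growth inhibition of NCI-H520 cells, measured by a cell viability assay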
Description: SANGER: Inhibition of human NCI-H520 cell growth in a cell viability assay.

[37] = tested on: NCI-H661; type: functional, cell-based, Homo sapiens; conditions: Homo sapiens, NCI-H661;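 also: cell viability assay read-out, IC50 being the concentration that inhibits growth of the cells by half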
Description: SANGER: Inhibition of human NCI-H661 cell growth in a cell viability assay.

[38] = tested on: NCI-H810; type: functional, cell-based, Homo sapiens; conditions: Homo sapiens, NCI-H810;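 also: IC50 reflects inhibition of cancer cell line growth, read out with a cell viability assay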
Description: SANGER: Inhibition of human NCI-H810 cell growth in a cell viability assay.

[39] = tested on: NCI-N87; type: functional, cell-based, Homo sapiens; conditions: Homo sapiens, NCI-N87;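 also: growth inhibition of human NCI-N87 cells, read out with a cell viability assay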
Description: SANGER: Inhibition of human NCI-N87 cell growth in a cell viability assay.

[40] = tested on: SNU1; type: functional, cell-based; conditions: Homo sapiens;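 also: growth inhibition of human NCI-SNU-1 cells, measured with a cell viability assay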
Description: SANGER: Inhibition of human NCI-SNU-1 cell growth in a cell viability assay.

[41] = tested on: OCUB-M; type: functional, cell-based, Homo sapiens; conditions: Homo sapiens, OCUB-M;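 also: growth inhibition of the cancer cell line, read out through a cell viability assay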
Description: SANGER: Inhibition of human OCUB-M cell growth in a cell viability assay.

[42] = tested on: SK-HEP1; type: functional, cell-based, Homo sapiens, SK-HEP-1; conditions: Homo sapiens, SK-HEP1;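 also: cell viability readout used to quantify reduction in proliferation of human SK-HEP-1 cells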
Description: SANGER: Inhibition of human SK-HEP-1 cell growth in a cell viability assay.

[43] = tested on: SK-N-FI; type: functional, cell-based, Homo sapiens; conditions: Homo sapiens, SK-N-FI;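 also: cell viability assay measuring growth inhibition of human SK-N-FI cells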
Description: SANGER: Inhibition of human SK-N-FI cell growth in a cell viability assay.

[44] = tested on: SK-NEP-1; type: functional, cell-based; conditions: Homo sapiens;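 also: growth inhibition of human SK-NEP-1 cells, read out by a cell viability assay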
Description: SANGER: Inhibition of human SK-NEP-1 cell growth in a cell viability assay.

[45] = tested on: SW626; type: functional, cell-based, Homo sapiens; conditions: Homo sapiens, SW626;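 also: growth inhibition of SW626 cells, measured with a cell viability assay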
Description: SANGER: Inhibition of human SW626 cell growth in a cell viability assay.

[46] = tested on: A253 cell line; type: functional, cell-based, Homo sapiens; conditions: Homo sapiens, A253;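 also: growth inhibition of A253 cells, read out with a cell viability assay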
Description: SANGER: Inhibition of human A253 cell growth in a cell viability assay.

[47] = tested on: CAL-120; type: functional, cell-based, Homo sapiens; conditions: Homo sapiens, CAL-120;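 also: cell growth inhibition, read out as cell viability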
Description: SANGER: Inhibition of human CAL-120 cell growth in a cell viability assay.

[48] = tested on: CAL-51; type: functional, cell-based, Homo sapiens; conditions: Homo sapiens, CAL-51;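 also: human CAL-51 cell line, growth inhibition read out via a cell viability assay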
Description: SANGER: Inhibition of human CAL-51 cell growth in a cell viability assay.

[49] = tested on: CAL-85-1; type: functional, cell-based; conditions: Homo sapiens;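 also: growth inhibition of human CAL-85-1 cells, read out with a cell viability assay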
Description: SANGER: Inhibition of human CAL-85-1 cell growth in a cell viability assay.

[50] = tested on: TE-10; type: functional, cell-based, Homo sapiens; conditions: Homo sapiens, TE-10;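 also: growth inhibition of TE-10 cells, measured by a cell viability assay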
Description: SANGER: Inhibition of human TE-10 cell growth in a cell viability assay.

[51] = tested on: UACC-893; type: functional, cell-based, Homo sapiens; conditions: Homo sapiens, UACC-893
Description: SANGER: Inhibition of human UACC-893 cell growth in a cell viability assay.

`CCOc1nc(NC(=O)Cc2cc(OC)ccc2OC)cc(N)c1C#N` was tested, and the IC50 [1] was greater than 10 µM, the IC50 [2] was greater than 10 µM and the IC50 [3] was greater than 10 µM. For the same molecule, the IC50 [4] was greater than 10 µM, the IC50 [5] was greater than 10 µM and the IC50 [6] was greater than 10 µM. The IC50 [7] was greater than 10 µM, the IC50 [8] was greater than 10 µM and the IC50 [9] was greater than 10 µM. The IC50 [10] was greater than 10 µM, the IC50 [11] was greater than 10 µM and the IC50 [12] was greater than 10 µM. The IC50 [13] was greater than 10 µM, the IC50 [14] was greater than 10 µM and the IC50 [15] was greater than 10 µM. For the same molecule, the IC50 [16] was greater than 10 µM, the IC50 [17] was greater than 10 µM and the IC50 [18] was greater than 10 µM. The IC50 [19] was greater than 10 µM, the IC50 [20] was greater than 10 µM and the IC50 [21] was greater than 10 µM. The IC50 [22] was greater than 10 µM, the IC50 [23] was greater than 10 µM and the IC50 [24] was greater than 10 µM. The IC50 [25] was greater than 10 µM, the IC50 [26] was greater than 10 µM and the IC50 [27] was greater than 10 µM. It also gave an IC50 [28] greater than 10 µM, an IC50 [29] greater than 10 µM and an IC50 [30] greater than 10 µM. The IC50 [31] was greater than 10 µM, the IC50 [32] was greater than 10 µM and the IC50 [33] was greater than 10 µM. It also gave an IC50 [34] greater than 10 µM, an IC50 [35] greater than 10 µM and an IC50 [36] greater than 10 µM. For the same molecule, the IC50 [37] was greater than 10 µM, the IC50 [38] was greater than 10 µM and the IC50 [39] was greater than 10 µM. The IC50 [40] was greater than 10 µM, the IC50 [41] was greater than 10 µM and the IC50 [42] was greater than 10 µM. The IC50 [43] was greater than 10 µM, the IC50 [44] was greater than 10 µM and the IC50 [45] was greater than 10 µM. It also gave an IC50 [46] greater than 10 µM, an IC50 [47] greater than 10 µM and an IC50 [48] greater than 10 µM. The IC50 [49] was greater than 10 µM, the IC50 [50] was greater than 10 µM and the IC50 [51] was greater than 10 µM.
Molecule `C=CCNC1=C2C[C@@H](C)C[C@H](OC)[C@H](O)[C@@H](C)/C=C(\C)[C@H](OC(N)=O)[C@@H](OC)/C=C\C=C(/C)C(=O)NC(=CC1=O)C2=O` [TANESPIMYCIN] has an IC50 [1] greater than 1 µM, an IC50 [2] of 0.173 µM and an IC50 [3] greater than 1 µM. The IC50 [4] was 0.193 µM, the IC50 [5] was 0.0279 µM and the IC50 [6] was greater than 1 µM. For the same molecule, the IC50 [7] was greater than 1 µM, the IC50 [8] was greater than 1 µM and the IC50 [9] was greater than 1 µM. It also gave an IC50 [10] of 0.222 µM, an IC50 [11] of 0.146 µM and an IC50 [12] of 0.772 µM. The IC50 [13] was 0.067 µM, the IC50 [14] was greater than 1 µM and the IC50 [15] was 0.163 µM. It also gave an IC50 [16] of 0.12 µM, an IC50 [17] greater than 1 µM and an IC50 [18] greater than 1 µM. It also gave an IC50 [19] of 0.482 µM, an IC50 [20] greater than 1 µM and an IC50 [21] greater than 1 µM. It also gave an IC50 [22] of 0.245 µM, an IC50 [23] greater than 1 µM and an IC50 [24] of 0.375 µM. It also gave an IC50 [25] of 0.952 µM, an IC50 [26] of 0.0477 µM and an IC50 [27] of 0.258 µM. It also gave an IC50 [28] of 0.261 µM, an IC50 [29] greater than 1 µM and an IC50 [30] greater than 1 µM. It also gave an IC50 [31] of 0.7 µM, an IC50 [32] greater than 1 µM and an IC50 [33] greater than 1 µM. For the same molecule, the IC50 [34] was 0.568 µM, the IC50 [35] was greater than 1 µM and the IC50 [36] was 0.387 µM. The IC50 [37] was 0.611 µM, the IC50 [38] was greater than 1 µM and the IC50 [39] was 0.0259 µM. The IC50 [40] was 0.00207 µM, the IC50 [41] was greater than 1 µM and the IC50 [42] was greater than 1 µM. For the same molecule, the IC50 [43] was greater than 1 µM, the IC50 [44] was greater than 1 µM and the IC50 [45] was 0.335 µM. For the same molecule, the IC50 [46] was greater than 1 µM, the IC50 [47] was 0.534 µM and the IC50 [48] was 0.014 µM. For the same molecule, the IC50 [49] was greater than 1 µM, the IC50 [50] was 0.414 µM and the IC50 [51] was 0.637 µM.
In the case of `CC(=O)O[C@@H]1[C@@H](OC(C)=O)[C@@H](O)[C@H](Oc2c(-c3ccc(O)cc3)oc3cc(O)cc(O)c3c2=O)O[C@H]1C`, the IC50 [1] is reported as greater than 10 µM, the IC50 [2] is reported as greater than 10 µM and the IC50 [3] is reported as greater than 10 µM. It also gave an IC50 [4] greater than 10 µM, an IC50 [5] greater than 10 µM and an IC50 [6] greater than 10 µM. The IC50 [7] was greater than 10 µM, the IC50 [8] was greater than 10 µM and the IC50 [9] was greater than 10 µM. For the same molecule, the IC50 [10] was greater than 10 µM, the IC50 [11] was greater than 10 µM and the IC50 [12] was greater than 10 µM. The IC50 [13] was greater than 10 µM, the IC50 [14] was greater than 10 µM and the IC50 [15] was greater than 10 µM. It also gave an IC50 [16] greater than 10 µM, an IC50 [17] greater than 10 µM and an IC50 [18] greater than 10 µM. It also gave an IC50 [19] greater than 10 µM, an IC50 [20] greater than 10 µM and an IC50 [21] greater than 10 µM. For the same molecule, the IC50 [22] was greater than 10 µM, the IC50 [23] was greater than 10 µM and the IC50 [24] was greater than 10 µM. The IC50 [25] was greater than 10 µM, the IC50 [26] was greater than 10 µM and the IC50 [27] was greater than 10 µM. For the same molecule, the IC50 [28] was greater than 10 µM, the IC50 [29] was greater than 10 µM and the IC50 [30] was greater than 10 µM. The IC50 [31] was greater than 10 µM, the IC50 [32] was greater than 10 µM and the IC50 [33] was greater than 10 µM. It also gave an IC50 [34] greater than 10 µM, an IC50 [35] greater than 10 µM and an IC50 [36] greater than 10 µM. It also gave an IC50 [37] greater than 10 µM, an IC50 [38] greater than 10 µM and an IC50 [39] greater than 10 µM. It also gave an IC50 [40] greater than 10 µM, an IC50 [41] greater than 10 µM and an IC50 [42] greater than 10 µM. The IC50 [43] was greater than 10 µM, the IC50 [44] was greater than 10 µM and the IC50 [45] was greater than 10 µM. The IC50 [46] was greater than 10 µM, the IC50 [47] was greater than 10 µM and the IC50 [48] was greater than 10 µM. It also gave an IC50 [49] greater than 10 µM, an IC50 [50] greater than 10 µM and an IC50 [51] greater than 10 µM.
